US20200399243A1, “NOVEL COMPOUNDS” (Inflazome Limited, priority 2018, published 2020)
Structures can show the parent of a compound that is named as a salt.

Biological target: T1, NLRP3 (Homo sapiens, UniProt Q96P20)
T1 construct: Seed THP-1 cells (25,000 cells/well) containing 1.0 μg/ml LPS in 40 μl of RPMI medium; host or cells: THP-1 cells
Experiment: THP-1 cells pyroptosis assay
Format: cell-based
Conditions: 1.0 μg/ml LPS, compound 3 hrs, nigericin 5 μM 1 hr, resazurin readout
Experimental: THP-1 cells (ATCC # TIB-202) were grown in RPMI containing L-glutamine (Gibco #11835) supplemented with 1 mM sodium pyruvate (Sigma # S8636) and penicillin (100 units/ml)/streptomycin (0.1 mg/ml) (Sigma # P4333) in 10% Fetal Bovine Serum (FBS) (Sigma # F0804). The cells were routinely passaged and grown to confluency (˜10^6 cells/ml). On the day of the experiment, THP-1 cells were harvested and resuspended into RPMI medium (without FBS). The cells were then counted and viability (>90%) checked by Trypan blue (Sigma # T8154). Appropriate dilutions were made to give a concentration of 625,000 cells/ml. To this diluted cell solution was added LPS (Sigma # L4524) to give a 1 μg/ml Final Assay Concentration (FAC). 40 μl of the final preparation was aliquoted into each well of a 96-well plate. The plate thus prepared was used for compound screening. The following method step-by-step assay was followed for compound screening. • 1. Seed THP-1 cells (25,000 cells/well) containing 1.0 μg/ml LPS in 40 μl of RPMI medium (without FBS) in 96-well, black walled, clear bottom cell culture plates coated with poly-D-lysine (VWR #734-0317) • 2. Add 5 μl compound (8 points half-log dilution, with 10 μM top dose) or vehicle (DMSO 0.1% FAC) to the appropriate wells • 3. Incubate for 3 hrs at 37° C., 5% CO2 • 4. Add 5 μl nigericin (Sigma # N7143) (FAC 5 μM) to all wells • 5. Incubate for 1 hr at 37° C., 5% CO2 • 6. At the end of the incubation period, spin plates at 300×g for 3 mins and remove supernatant 7. Then add 50 μl of resazurin (Sigma # R7017) (FAC 100 μM resazurin in RPMI medium without FBS) and incubate plates for a further 1-2 hrs at 37° C. and 5% CO2 • 8. Plates were read in an Envision reader at Ex 560 nm and Em 590 nm • 9. IC50 data is fitted to a non-linear regression equation (log inhibitor vs response-variable slope 4-parameters) The results of the pyroptosis assay are summarised in Table 2 below as THP IC50.

T1 sequence (Q96P20 whole entry): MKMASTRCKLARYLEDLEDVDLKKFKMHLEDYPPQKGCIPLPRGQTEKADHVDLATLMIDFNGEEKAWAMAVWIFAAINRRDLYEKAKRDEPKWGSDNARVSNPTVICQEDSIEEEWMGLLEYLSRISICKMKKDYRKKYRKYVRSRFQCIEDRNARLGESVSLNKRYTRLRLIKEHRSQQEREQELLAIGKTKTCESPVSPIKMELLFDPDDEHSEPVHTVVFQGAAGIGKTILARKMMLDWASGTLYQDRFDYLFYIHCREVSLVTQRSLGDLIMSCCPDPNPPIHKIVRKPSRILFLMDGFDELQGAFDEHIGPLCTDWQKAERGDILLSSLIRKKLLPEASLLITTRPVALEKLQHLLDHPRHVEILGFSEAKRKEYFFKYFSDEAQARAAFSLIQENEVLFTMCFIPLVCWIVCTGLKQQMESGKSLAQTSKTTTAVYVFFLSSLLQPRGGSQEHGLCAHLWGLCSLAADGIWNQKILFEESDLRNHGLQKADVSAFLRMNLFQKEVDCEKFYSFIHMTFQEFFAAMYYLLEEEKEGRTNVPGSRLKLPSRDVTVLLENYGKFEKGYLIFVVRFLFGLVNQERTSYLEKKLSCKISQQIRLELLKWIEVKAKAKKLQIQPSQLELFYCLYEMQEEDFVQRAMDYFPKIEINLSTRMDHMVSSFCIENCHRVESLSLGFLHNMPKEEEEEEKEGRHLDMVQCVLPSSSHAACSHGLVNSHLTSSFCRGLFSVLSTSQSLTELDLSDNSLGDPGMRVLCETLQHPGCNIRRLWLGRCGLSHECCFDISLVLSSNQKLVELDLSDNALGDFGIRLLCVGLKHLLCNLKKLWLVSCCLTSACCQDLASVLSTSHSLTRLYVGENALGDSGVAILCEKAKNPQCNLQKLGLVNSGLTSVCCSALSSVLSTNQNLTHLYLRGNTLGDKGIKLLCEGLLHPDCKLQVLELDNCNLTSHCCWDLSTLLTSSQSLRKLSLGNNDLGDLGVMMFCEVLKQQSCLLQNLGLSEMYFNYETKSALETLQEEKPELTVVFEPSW

| IC50 | SMILES |
| --- | --- |
| 1 to 5 µM | CC(c1cc(S(=O)(=O)NC(=O)Cc2c3c(cc4c2CCC4)CCC3)nn1C)N(C)C (stereo not drawn) [Example 11, N-((5-(1-(Dimethylamino)ethyl)-1-methyl-1H-pyrazol-3-yl)sulfonyl)-2-(1,2,3,5,6,7-hexahydro-s-indacen-4-yl)acetamide] |
| 5 to 10 µM | CN(C)CC(C)(C)n1ccc(S(=O)(=O)NC(=O)Cc2c3c(cc4c2CCC4)CCC3)n1 [Example 13, N-((1-(1-(Dimethylamino)-2-methylpropan-2-yl)-1H-pyrazol-3-yl)sulfonyl)-2-(1,2,3,5,6,7-hexahydro-s-indacen-4-yl)acetamide] |
| 1 to 5 µM | COc1cc(-c2cc(F)cc(C(C)C)c2CC(=O)NS(=O)(=O)c2cc(CN(C)C)n(C)n2)ccn1 [Example 8, N-((5-((Dimethylamino)methyl)-1-methyl-1H-pyrazol-3-yl)sulfonyl)-2-(4-fluoro-2-isopropyl-6-(2-methoxypyridin-4-yl)phenyl) acetamide, potassium salt] |
| 1 to 5 µM | CC(C)c1cc(F)cc(C(C)C)c1CC(=O)NS(=O)(=O)c1cc(C(=O)N(C)C)n(C)n1 [Example 2, 3-(N-(2-(4-Fluoro-2,6-diisopropylphenyl)acetyl)sulfamoyl)-N,N,1-trimethyl-1H-pyrazole-5-carboxamide] |
| ≤ 1 µM | COc1cc(-c2cc(F)cc(C(C)C)c2CC(=O)NS(=O)(=O)c2cc(C(=O)N(C)C)n(C)n2)ccn1 [Example 4, 3-(N-(2-(4-Fluoro-2-isopropyl-6-(2-methoxypyridin-4-yl)phenyl)acetyl)sulfamoyl)-N,N,1-trimethyl-1H-pyrazole-5-carboxamide, potassium salt] |
| 1 to 5 µM | CC(C)c1cc(F)cc(-c2cccnc2)c1CC(=O)NS(=O)(=O)c1cc(C(=O)N(C)C)n(C)n1 [Example 5, 3-(N-(2-(4-Fluoro-2-isopropyl-6-(pyridin-3-yl)phenyl)acetyl)sulfamoyl)-N,N,1-trimethyl-1H-pyrazole-5-carboxamide] |
| 1 to 5 µM | CC(C)c1cc(F)cc(C(C)C)c1CC(=O)NS(=O)(=O)c1cc(CN(C)C)n(C2CC2)n1 [Example 10, N-((1-Cyclopropyl-5-((dimethylamino)methyl)-1H-pyrazol-3-yl)sulfonyl)-2-(4-fluoro-2,6-diisopropylphenyl)acetamide] |
| 1 to 5 µM | CC(C)n1nc(S(=O)(=O)NC(=O)Cc2c3c(cc4c2CCC4)CCC3)cc1CN(C)C [Example 1, N-((5-((Dimethylamino)methyl)-1-isopropyl-1H-pyrazol-3-yl)sulfonyl)-2-(1,2,3,5,6,7-hexahydro-s-indacen-4-yl)acetamide] |
| 5 to 10 µM | CN(C)C(=O)c1cc(S(=O)(=O)NC(=O)Cc2c3c(cc4c2CCC4)CCC3)nn1C [Example 12, 3-(N-(2-(1,2,3,5,6,7-Hexahydro-s-indacen-4-yl)acetyl)sulfamoyl)-N,N,1-trimethyl-1H-pyrazole-5-carboxamide] |
| 1 to 5 µM | CC(C)c1cc(F)cc(-c2ccncc2)c1CC(=O)NS(=O)(=O)c1cc(C(=O)N(C)C)n(C)n1 [Example 6, 3-(N-(2-(4-Fluoro-2-isopropyl-6-(pyridin-4-yl)phenyl)acetyl)sulfamoyl)-N,N,1-trimethyl-1H-pyrazole-5-carboxamide, potassium salt] |
| 1 to 5 µM | CC(C)c1cc(F)cc(-c2ccncc2)c1CC(=O)NS(=O)(=O)c1cc(CN(C)C)n(C)n1 [Example 17, N-((5-((Dimethylamino)methyl)-1-methyl-1H-pyrazol-3-yl)sulfonyl)-2-(4-fluoro-2-isopropyl-6-(pyridin-4-yl)phenyl)acetamide] |
| 5 to 10 µM | COc1cc(-c2ccc3c(c2CC(=O)NS(=O)(=O)c2cc(C(=O)N(C)C)n(C)n2)CCC3)ccn1 [Example 14, 3-(N-(2-(5-(2-Methoxypyridin-4-yl)-2,3-dihydro-1H-inden-4-yl)acetyl)sulfamoyl)-N,N,1-trimethyl-1H-pyrazole-5-carboxamide] |
| 1 to 5 µM | CC(c1cc(S(=O)(=O)NC(=O)Cc2c3c(cc4c2CCC4)CCC3)nn1C(C)C)N(C)C (stereo not drawn) [Example 3, N-((5-(1-(Dimethylamino)ethyl)-1-isopropyl-1H-pyrazol-3-yl)sulfonyl)-2-(1,2,3,5,6,7-hexahydro-s-indacen-4-yl)acetamide] |
| 1 to 5 µM | CN(C)C(=O)c1cc(S(=O)(=O)NC(=O)Cc2c(-c3ccnc(C#N)c3)ccc3c2CCC3)nn1C [Example 15, 3-(N-(2-(5-(2-Cyanopyridin-4-yl)-2,3-dihydro-1H-inden-4-yl)acetyl)sulfamoyl)-N,N,1-trimethyl-1H-pyrazole-5-carboxamide] |
| 1 to 5 µM | CC(c1cc(S(=O)(=O)NC(=O)Cc2c3c(cc4c2CCC4)CCC3)nn1C1CC1)N(C)C (stereo not drawn) [Example 9, N-((1-Cyclopropyl-5-(1-(dimethylamino)ethyl)-1H-pyrazol-3-yl)sulfonyl)-2-(1,2,3,5,6,7-hexahydro-s-indacen-4-yl)acetamide] |
| 5 to 10 µM | CC(C)c1cc(F)cc(C(C)C)c1CC(=O)NS(=O)(=O)c1ccn(CCN(C)C)n1 [Example 16, N-((1-(2-(Dimethylamino)ethyl)-1H-pyrazol-3-yl)sulfonyl)-2-(4-fluoro-2,6-diisopropylphenyl)acetamide] |
| 1 to 5 µM | COc1cc(-c2cc(F)cc(C(C)C)c2CC(=O)NS(=O)(=O)c2ccn(C(C)(C)CN(C)C)n2)ccn1 [Example 18] |
| 1 to 5 µM | CC(C)c1cc(F)cc(-c2ccncc2)c1CC(=O)NS(=O)(=O)c1ccn(C(C)(C)CN(C)C)n1 [Example 7, N-((1-(1-(Dimethylamino)-2-methylpropan-2-yl)-1H-pyrazol-3-yl)sulfonyl)-2-(4-fluoro-2-isopropyl-6-(pyridin-4-yl)phenyl)acetamide, potassium salt] |
